According to article PMC10458470 (Molecules, 2023):
Where two headings read alike, the source gives them in different places.

Key:
Assay in all cases: UV-Vis absorption titration (Kb) and fluorescence quenching (KSV […] ^-1)
Type in all cases: binding
[1] = target: T1, human serum albumin (HSA) (Homo sapiens, UniProt P02768); conditions: read-out: UV-Vis absorption titration (Kb) and fluorescence quenching (KSV 5.6 × 10^6 M^-1) (converted)
T1 construct: gene ALB

[2] = target: T1, human serum albumin (HSA); conditions: read-out: UV-Vis absorption titration (Kb) and fluorescence quenching (KSV 4.6 × 10^6 M^-1) (converted)
[3] = target: T1, human serum albumin (HSA); conditions: read-out: UV-Vis absorption titration (Kb) and fluorescence quenching (KSV 4 × 10^6 M^-1) (converted)

T1 sequence (P02768 25-609): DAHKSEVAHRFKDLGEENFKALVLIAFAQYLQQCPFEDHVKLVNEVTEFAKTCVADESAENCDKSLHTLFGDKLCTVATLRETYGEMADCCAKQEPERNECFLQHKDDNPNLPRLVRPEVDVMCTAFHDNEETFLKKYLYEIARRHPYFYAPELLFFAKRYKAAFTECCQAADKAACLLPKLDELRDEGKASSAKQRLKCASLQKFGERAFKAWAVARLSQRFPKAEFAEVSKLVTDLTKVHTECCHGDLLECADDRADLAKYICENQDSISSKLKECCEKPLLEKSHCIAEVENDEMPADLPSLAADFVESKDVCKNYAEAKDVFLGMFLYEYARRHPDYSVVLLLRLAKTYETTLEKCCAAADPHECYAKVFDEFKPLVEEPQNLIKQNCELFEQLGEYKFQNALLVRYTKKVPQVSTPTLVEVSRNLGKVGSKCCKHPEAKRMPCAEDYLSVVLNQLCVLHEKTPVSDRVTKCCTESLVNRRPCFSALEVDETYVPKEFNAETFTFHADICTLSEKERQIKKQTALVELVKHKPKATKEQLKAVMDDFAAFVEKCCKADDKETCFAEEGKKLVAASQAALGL

[Cu(NTZ)2Cl2] [NTZ-Cu(II)]
Kd [1]: 5.35 µM

[Ni(NTZ)2Cl2] [NTZ-Ni(II)]
Kd [2]: 20.9 µM

[Zn(NTZ)2Cl2] [NTZ-Zn(II)]
Kd [3]: 13.4 µM
